{"source": "patent US10123993B2", "about": "“Cyclic ureas as inhibitors of rock” (BRISTOL-MYERS SQUIBB COMPANY, priority 2015, dated 2018)"}
{"molecular_target": "ROCK2 (Homo sapiens, UniProt O75116)", "sequence (O75116 whole entry, species assumed)": "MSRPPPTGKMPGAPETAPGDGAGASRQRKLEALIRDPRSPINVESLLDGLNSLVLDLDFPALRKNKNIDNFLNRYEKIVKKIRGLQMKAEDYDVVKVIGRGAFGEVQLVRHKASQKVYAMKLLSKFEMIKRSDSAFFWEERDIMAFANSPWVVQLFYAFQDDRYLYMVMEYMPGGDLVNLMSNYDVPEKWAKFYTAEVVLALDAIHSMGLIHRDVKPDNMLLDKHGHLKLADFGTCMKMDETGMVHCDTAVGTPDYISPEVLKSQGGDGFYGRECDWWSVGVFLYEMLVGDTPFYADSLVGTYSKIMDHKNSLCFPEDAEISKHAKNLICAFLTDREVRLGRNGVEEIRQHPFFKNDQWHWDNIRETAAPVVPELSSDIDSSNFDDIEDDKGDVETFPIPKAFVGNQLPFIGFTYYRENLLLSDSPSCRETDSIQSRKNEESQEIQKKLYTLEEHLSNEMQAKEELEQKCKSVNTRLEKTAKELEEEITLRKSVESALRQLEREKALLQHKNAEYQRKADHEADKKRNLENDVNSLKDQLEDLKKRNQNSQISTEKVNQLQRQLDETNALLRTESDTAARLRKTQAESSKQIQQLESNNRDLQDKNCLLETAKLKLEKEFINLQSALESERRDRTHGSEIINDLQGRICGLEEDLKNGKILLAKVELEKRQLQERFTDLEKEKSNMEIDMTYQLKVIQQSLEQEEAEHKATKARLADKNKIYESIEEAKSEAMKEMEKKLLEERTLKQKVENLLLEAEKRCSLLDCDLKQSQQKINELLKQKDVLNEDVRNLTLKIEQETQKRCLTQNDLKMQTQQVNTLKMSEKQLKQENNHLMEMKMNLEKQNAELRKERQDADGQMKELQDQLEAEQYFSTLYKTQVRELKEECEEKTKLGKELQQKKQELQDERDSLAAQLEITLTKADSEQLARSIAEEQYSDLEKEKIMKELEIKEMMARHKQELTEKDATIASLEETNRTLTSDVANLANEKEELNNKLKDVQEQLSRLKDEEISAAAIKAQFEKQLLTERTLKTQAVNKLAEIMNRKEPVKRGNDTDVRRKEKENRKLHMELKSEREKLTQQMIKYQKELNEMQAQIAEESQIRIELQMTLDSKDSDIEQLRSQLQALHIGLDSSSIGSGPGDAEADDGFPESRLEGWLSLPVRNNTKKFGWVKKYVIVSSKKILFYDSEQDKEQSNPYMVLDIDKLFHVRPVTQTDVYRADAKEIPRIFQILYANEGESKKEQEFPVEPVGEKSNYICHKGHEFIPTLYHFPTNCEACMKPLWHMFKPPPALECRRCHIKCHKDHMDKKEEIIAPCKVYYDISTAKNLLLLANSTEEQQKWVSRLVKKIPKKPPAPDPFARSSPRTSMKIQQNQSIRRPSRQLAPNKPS", "experiment": "ROCK2 kinase inhibition assay (Caliper LABCHIP, FITC peptide substrate)", "assay_type": "biochemical", "conditions": "5 μM ATP, 1.5 μM peptide substrate; value ranges", "procedure,_shortened": "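Dose-response curves gave IC50 from inhibition of peptide phosphorylation, measured by LabChip separation after EDTA stop. Reactions used 1.5 μM FITC-labelled peptide, 5 μM ATP, 20 mM HEPES pH 7.5 with MgCl2, Brij-35, DTT, and under 2% DMSO.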", "units": {"IC50": "nM"}}
{"smiles": "CCc1cc(-n2ccn(C(C)c3cccc(OC)c3)c2=O)ccc1-c1cn[nH]c1", "note": "(single isomer, unassigned) [Example 353, 1-(3-ethyl-4-(1H-pyrazol-4-yl)phenyl)-3-(1-(3-methoxyphenyl)ethyl)-1H-imidazol-2(3H)-one]", "IC50": "2.1 to 20"}
{"smiles": "COc1cccc(C(C)n2ccn(-c3ccc(-c4cn[nH]c4)cn3)c2=O)c1", "note": "(single isomer, unassigned) [Example 354, 1-(5-(1H-pyrazol-4-yl)pyridin-2-yl)-3-(1-(3-methoxyphenyl)ethyl)-1H-imidazol-2(3H)-one]", "IC50": "20.1 to 200"}
{"smiles": "COc1cccc(C(C)n2ccn(-c3ccc(-c4cn[nH]c4)cn3)c2=O)c1", "note": "(single isomer, unassigned) [Example 355, 1-(5-(1H-pyrazol-4-yl)pyridin-2-yl)-3-(1-(3-methoxyphenyl)ethyl)-1H-imidazol-2(3H)-one]", "IC50": "< 2"}
{"smiles": "CC(c1cccc(OCC2CC2)c1)n1ccn(-c2ccc(-c3cn[nH]c3)cc2)c1=O", "note": "(single isomer, unassigned) [Example 356, 1-(4-(1H-pyrazol-4-yl)phenyl)-3-(1-(3-(cyclopropylmethoxy)phenyl)ethyl)-1H-imidazol-2(3H)-one]", "IC50": "200 to 2000"}
{"smiles": "CC(c1cccc(OCC2CC2)c1)n1ccn(-c2ccc(-c3cn[nH]c3)cc2)c1=O", "note": "(single isomer, unassigned) [Example 357, 1-(4-(1H-pyrazol-4-yl)phenyl)-3-(1-(3-(cyclopropylmethoxy)phenyl)ethyl)-1H-imidazol-2(3H)-one]", "IC50": "20.1 to 200"}
{"smiles": "CCc1cc(-n2ccn(C(CO)c3cccc(OC)c3)c2=O)ccc1-c1cn[nH]c1", "note": "(single isomer, unassigned) [Example 358, 1-(3-ethyl-4-(1H-pyrazol-4-yl)phenyl)-3-(2-hydroxy-1-(3-methoxyphenyl)ethyl)-1H-imidazol-2(3H)-one]", "IC50": "200 to 2000"}
{"smiles": "CCc1cc(-n2ccn(C(CO)c3cccc(OC)c3)c2=O)ccc1-c1cn[nH]c1", "note": "(single isomer, unassigned) [Example 359, 1-(3-ethyl-4-(1H-pyrazol-4-yl)phenyl)-3-(2-hydroxy-1-(3-methoxyphenyl)ethyl)-1H-imidazol-2(3H)-one]", "IC50": "20.1 to 200"}
{"smiles": "COc1cccc(C(CO)n2ccn(-c3ccc(-c4cn[nH]c4)c(OC)c3)c2=O)c1", "note": "(single isomer, unassigned) [Example 360, 1-(2-hydroxy-1-(3-methoxyphenyl)ethyl)-3-(3-methoxy-4-(1H-pyrazol-4-yl)phenyl)-1H-imidazol-2(3H)-one]", "IC50": "200 to 2000"}
{"smiles": "COc1cccc(C(CO)n2ccn(-c3ccc(-c4cn[nH]c4)c(OC)c3)c2=O)c1", "note": "(single isomer, unassigned) [Example 361, 1-(2-hydroxy-1-(3-methoxyphenyl)ethyl)-3-(3-methoxy-4-(1H-pyrazol-4-yl)phenyl)-1H-imidazol-2(3H)-one]", "IC50": "2.1 to 20"}
{"smiles": "CCc1nc(-n2ccn(C(C)c3cc(F)cc(OC)c3)c2=O)ccc1-c1cn[nH]c1", "note": "(single isomer, unassigned) [Example 362, 1-(6-ethyl-5-(1H-pyrazol-4-yl)pyridin-2-yl)-3-(1-(3-fluoro-5-methoxyphenyl)ethyl)-1H-imidazol-2(3H)-one]", "IC50": "< 2"}
{"smiles": "CCc1nc(-n2ccn(C(C)c3cc(F)cc(OC)c3)c2=O)ccc1-c1cn[nH]c1", "note": "(single isomer, unassigned) [Example 363, 1-(6-ethyl-5-(1H-pyrazol-4-yl)pyridin-2-yl)-3-(1-(3-fluoro-5-methoxyphenyl)ethyl)-1H-imidazol-2(3H)-one]", "IC50": "200 to 2000"}
{"smiles": "CCOc1cccc(C(C)n2ccn(-c3ccc(-c4cn[nH]c4)c(CC)n3)c2=O)c1", "note": "(single isomer, unassigned) [Example 364, 1-(1-(3-ethoxyphenyl)ethyl)-3-(6-ethyl-5-(1H-pyrazol-4-yl)pyridin-2-yl)-1H-imidazol-2(3H)-one]", "IC50": "20.1 to 200"}
{"smiles": "CCOc1cccc(C(C)n2ccn(-c3ccc(-c4cn[nH]c4)c(CC)n3)c2=O)c1", "note": "(single isomer, unassigned) [Example 365, 1-(1-(3-ethoxyphenyl)ethyl)-3-(6-ethyl-5-(1H-pyrazol-4-yl)pyridin-2-yl)-1H-imidazol-2(3H)-one]", "IC50": "200 to 2000"}
{"smiles": "COc1cc(F)cc(C(C)n2ccn(-c3ccc(-c4cn[nH]c4)cc3)c2=O)c1", "note": "(single isomer, unassigned) [Example 366, 1-(4-(1H-pyrazol-4-yl)phenyl)-3-(1-(3-fluoro-5-methoxyphenyl)ethyl)-1H-imidazol-2(3H)-one]", "IC50": "< 2"}
{"smiles": "COc1cc(F)cc(C(C)n2ccn(-c3ccc(-c4cn[nH]c4)cc3)c2=O)c1", "note": "(single isomer, unassigned) [Example 367, 1-(4-(1H-pyrazol-4-yl)phenyl)-3-(1-(3-fluoro-5-methoxyphenyl)ethyl)-1H-imidazol-2(3H)-one]", "IC50": "20.1 to 200"}
{"smiles": "CCOc1cccc(C(C)n2ccn(-c3ccc(-c4cn[nH]c4)cc3)c2=O)c1", "note": "(single isomer, unassigned) [Example 368, 1-(4-(1H-pyrazol-4-yl)phenyl)-3-(1-(3-ethoxyphenyl)ethyl)-1H-imidazol-2(3H)-one]", "IC50": "200 to 2000"}
{"smiles": "CCOc1cccc(C(C)n2ccn(-c3ccc(-c4cn[nH]c4)cc3)c2=O)c1", "note": "(single isomer, unassigned) [Example 369, 1-(4-(1H-pyrazol-4-yl)phenyl)-3-(1-(3-ethoxyphenyl)ethyl)-1H-imidazol-2(3H)-one]", "IC50": "2.1 to 20"}
{"smiles": "CCOc1cccc(C(C)n2ccn(-c3ccc(-c4cn[nH]c4)cn3)c2=O)c1", "note": "(single isomer, unassigned) [Example 370, 1-(5-(1H-pyrazol-4-yl)pyridin-2-yl)-3-(1-(3-ethoxyphenyl)ethyl)-1H-imidazol-2(3H)-one]", "IC50": "2.1 to 20"}
{"smiles": "CCOc1cccc(C(C)n2ccn(-c3ccc(-c4cn[nH]c4)cn3)c2=O)c1", "note": "(single isomer, unassigned) [Example 371, 1-(5-(1H-pyrazol-4-yl)pyridin-2-yl)-3-(1-(3-ethoxyphenyl)ethyl)-1H-imidazol-2(3H)-one]", "IC50": "20.1 to 200"}
{"smiles": "CCc1nc(-n2ccn(C(C)c3cccc(OCC4CC4)c3)c2=O)ccc1-c1cn[nH]c1", "note": "(single isomer, unassigned) [Example 372, 1-(1-(3-(cyclopropylmethoxy)phenyl)ethyl)-3-(6-ethyl-5-(1H-pyrazol-4-yl)pyridin-2-yl)-1H-imidazol-2(3H)-one]", "IC50": "20.1 to 200"}
{"smiles": "COc1cccc(C(C)n2ccn(-c3ccc(-c4ccncc4F)cc3)c2=O)c1", "note": "(single isomer, unassigned) [Example 387, 1-(4-(3-fluoropyridin-4-yl)phenyl)-3-(1-(3-methoxyphenyl)ethyl)-1H-imidazol-2(3H)-one]", "IC50": "20.1 to 200"}
{"smiles": "CCc1nc(-n2ccn(C(C)c3ccc(F)c(OC)c3)c2=O)ccc1-c1cn[nH]c1", "note": "(single isomer, unassigned) [Example 388, 1-(6-ethyl-5-(1H-pyrazol-4-yl)pyridin-2-yl)-3-(1-(4-fluoro-3-methoxyphenyl)ethyl)-1H-imidazol-2(3H)-one]", "IC50": "2.1 to 20"}
{"smiles": "COc1cc(C(C)n2ccn(-c3ccc(-c4cn[nH]c4)c(OC)n3)c2=O)ccc1F", "note": "(single isomer, unassigned) [Example 389, 1-(1-(4-fluoro-3-methoxyphenyl)ethyl)-3-(6-methoxy-5-(1H-pyrazol-4-yl)pyridin-2-yl)-1H-imidazol-2(3H)-one]", "IC50": "< 2"}
{"smiles": "COc1cc(C(C)n2ccn(-c3ccc(-c4cn[nH]c4)c(OC)n3)c2=O)ccc1F", "note": "(single isomer, unassigned) [Example 390, 1-(1-(4-fluoro-3-methoxyphenyl)ethyl)-3-(6-methoxy-5-(1H-pyrazol-4-yl)pyridin-2-yl)-1H-imidazol-2(3H)-one]", "IC50": "20.1 to 200"}
{"smiles": "COc1cc(C(C)n2ccn(-c3ccc(-c4cn[nH]c4)cc3)c2=O)ccc1F", "note": "(single isomer, unassigned) [Example 391, 1-(4-(1H-pyrazol-4-yl)phenyl)-3-(1-(4-fluoro-3-methoxyphenyl)ethyl)-1H-imidazol-2(3H)-one]", "IC50": "2.1 to 20"}
{"smiles": "COc1cc(C(C)n2ccn(-c3ccc(-c4cn[nH]c4)cc3)c2=O)ccc1F", "note": "(single isomer, unassigned) [Example 392, 1-(4-(1H-pyrazol-4-yl)phenyl)-3-(1-(4-fluoro-3-methoxyphenyl)ethyl)-1H-imidazol-2(3H)-one]", "IC50": "200 to 2000"}
{"smiles": "COc1cc(F)cc(C(C)n2ccn(-c3ccc(-c4cn[nH]c4)cn3)c2=O)c1", "note": "(single isomer, unassigned) [Example 393, 1-(5-(1H-pyrazol-4-yl)pyridin-2-yl)-3-(1-(3-fluoro-5-methoxyphenyl)ethyl)-1H-imidazol-2(3H)-one]", "IC50": "2.1 to 20"}
{"smiles": "COc1cc(F)cc(C(C)n2ccn(-c3ccc(-c4cn[nH]c4)cn3)c2=O)c1", "note": "(single isomer, unassigned) [Example 394, 1-(5-(1H-pyrazol-4-yl)pyridin-2-yl)-3-(1-(3-fluoro-5-methoxyphenyl)ethyl)-1H-imidazol-2(3H)-one]", "IC50": "20.1 to 200"}
{"smiles": "COc1cc(F)cc(C(C)n2ccn(-c3ccc(-c4cn[nH]c4)c(OC)n3)c2=O)c1", "note": "(single isomer, unassigned) [Example 397, 1-(1-(3-fluoro-5-methoxyphenyl)ethyl)-3-(6-methoxy-5-(1H-pyrazol-4-yl)pyridin-2-yl)-1H-imidazol-2(3H)-one]", "IC50": "< 2"}
{"smiles": "COc1cc(F)cc(C(C)n2ccn(-c3ccc(-c4cn[nH]c4)c(OC)n3)c2=O)c1", "note": "(single isomer, unassigned) [Example 398, 1-(1-(3-fluoro-5-methoxyphenyl)ethyl)-3-(6-methoxy-5-(1H-pyrazol-4-yl)pyridin-2-yl)-1H-imidazol-2(3H)-one]", "IC50": "2.1 to 20"}
{"smiles": "COc1cccc(C(C)n2ccn(-c3ccc(-c4ccnc(N)n4)cc3)c2=O)c1", "note": "(single isomer, unassigned) [Example 399, 1-(4-(2-aminopyrimidin-4-yl)phenyl)-3-(1-(3-methoxyphenyl)ethyl)-1H-imidazol-2(3H)-one]", "IC50": "2.1 to 20"}
{"smiles": "COc1cccc(C(C)n2ccn(-c3ccc(-c4cn[nH]c4)c(OC)n3)c2=O)c1", "note": "(single isomer, unassigned) [Example 400, 1-(6-methoxy-5-(1H-pyrazol-4-yl)pyridin-2-yl)-3-(1-(3-methoxyphenyl)ethyl)-1H-imidazol-2(3H)-one]", "IC50": "< 2"}
